Source: US8697837B2, “Substrate for Rpn 11 enzymatic activity” (Onyx Therapeutics, Inc., priority 2005, dated 2014)
Each block holds one compound with its values, some of them ahead of it. Where no end group is shown, it is not given here. Ub4 = N-terminal tetraubiquitin moiety

Key:
[1] = target: T1, chymotryptic-like activity of the 20S proteasome (Homo sapiens, UniProt P20618+P28074); assay: Example 2 screen: liberation of AMC from LLVY-AMC; type: biochemical; conditions: substrate LLVY-AMC; method of Example 2
T1 construct: 26S proteasome purified from humans and purchased from BioMol; purchased BioMol
Experimental: (§1) 4) 26S proteasome purified from humans and purchased from BioMol;
(§2) 5 μl of compound [30 μM compound in Buffer A+1% DMSO], 5 μl of substrate [30 nM Ub4-pep-C14(29)-Oregon Green and 15 μM LLVY-AMC in Buffer A] and 5 μl enzyme [1.5 nM 26S proteasomes] were mixed in a 384 well plates and incubated at 28° C. for 75 minutes. Reactions were stopped with the addition of […] 20S inhibitor (PR-171) and 4 mM EDTA. Processing of the 20S substrate LLVY-AMC to liberate AMC was determined by measuring the AMC fluorescence [excitation at 340 nm; emission at 465 nm]. Processing of the 19S substrate Ub4-pep-C14(29)-Oregon Green to liberate pep-C14(29)-Oregon Green was determined by measuring the fluorescence polarization of Oregon Green [excitation at 485 nm; emission at 535 nm].
Modulators of the 20S proteasome activity affect liberation of AMC from LLVY-AMC (second non-ubiquitinated substrate) and affect the chymotryptic-like activity of the 20S proteasome.

19S proteasome = assay: Example 2 screen: liberation of pep-C14(29)-Oregon Green from Ub4-pep-C14(29)-Oregon Green (fluorescence polarization); type: biochemical, human; conditions: method of Example 2
Experimental: as §1, §2
Modulators of the 19S proteasome activity affect liberation of pep-C14(29)-Oregon Green from Ub4-pep-C14(29)-Oregon Green (first ubiquitinated substrate).

Rpn11 (26S proteasome) [2] = target: T2, Rpn11 (26S proteasome) (Homo sapiens, UniProt O00487); assay: SDS-PAGE assay of Ub4-peptide substrate proteolysis by 26S proteasome; type: biochemical; conditions: for inhibition of proteolysis of the substrate Ub4-peptide(29) and Ub4-peptide-C14(29) by the 26S proteasome: FIG. 1, 60 nM 26S proteasome, 2 h 37 °C, 5 mM ATPγS, 1 mM OPA, 5 μM Ub-aldehyde, SDS-PAGE
T2 construct: To date, a recombinant form of Rpn11 has not been generated
Experimental: Each peptide substrate further comprises an N-terminal ubiquitin moiety that has 4 Ub repeats (Ub4). […] 2 μg of Ub4-peptide(29) or Ub4-peptide-C14(29) were incubated with 60 nM 26S proteasome in buffer B [50 mM Tris pH 8.0; 10 mM MgCl2; 1 mM DTT; 1 mM ATP] and where indicated 5 mM ATPγS, 1 mM O-phenanthroline (OPA) and 5 μM ubiquitin aldehyde (Ub-aldehyde) in a volume of 20 μl for 2 hours at 37° C. Reactions were stopped by adding 7.5 μl loading dye and boiled at 100° C. for 5 minutes. Reactions were then loaded on an SDS-PAGE gel, reaction products were separated by electrophoresis and bands were visualized with brilliant blue.
Each peptide substrate further comprises an N-terminal ubiquitin moiety that has 4 Ub repeats (Ub4).

Rpn11 = Rpn11 (Saccharomyces cerevisiae, UniProt P43588); conditions: purified 26S proteasome complex; cited from earlier work
[3] = target: ubiquitin or polyubiquitin chains (Homo sapiens, UniProt P0CG48); conditions: cited from earlier work
Ub4-pep-C14(29) = assay: Intrinsic fluorescence of ubistatin A on incubation with Ub4-pep-C14(29); type: binding; conditions: 2.5 μM ubistatin A with 2.5 μM Ub4-pep-C14(29); excitation 350 nm, emission 450 nm
Description: A test agent that binds ubiquitin can affect the binding of ubistatin A (C92) to Ub4-pep-C14(29). This can be determined by measuring the intrinsic fluorescence of ubistatin A (C92) [excitation at 350 nm; emission at 450 nm] with Ub4-pep-C14(29) in the presence or absence of a test agent, which is a competition assay between ubistatin A and the test agent for binding to the ubiquitin.

Rpn11 (26S proteasome) [4] = target: T2, Rpn11 (26S proteasome); assay: High throughput fluorescence polarization assay of Ub4-peptide(29)-fluorescein proteolysis by 26S proteasome; type: biochemical; conditions: FIG. 5A/5B; 100 nM substrate, 10 nM 26S proteasome, 28 °C, various inhibitor concentrations
Experimental: Various concentrations (as indicated) of Ub4-peptide(29) coupled to Fluorescein-5-maleimide was incubated with 10 nM 26S proteasome in 50 mM Tris pH 8.0; 10 mM MgCl2; 1 mM DTT; 1 mM ATP at 28° C., and the liberation of peptide(29)-fluorescein was measured by fluorescence polarization (excitation at 485 nm; emission at 510 nm).
FIG. 5A illustrates a high throughput (HTP) FP assay that detects O-phenanthroline inhibition of Rpn11 activity. […] 100 nM Ub4-peptide coupled to fluorescein-5-maleimide was incubated with 10 nM 26S proteasome in 50 mM Tris pH 8.0; 10 mM MgCl2; 1 mM DTT; 1 mM ATP at 28° C. and the liberation of peptide was measured by fluorescence polarization (excitation at 485 nm; emission at 510 nm) in the presence of various concentrations of o-phenanthroline (as indicated).
FIG. 5B illustrates that Rpn11 enzymatic activity is unaffected by the presence of a 20S proteasome inhibitor in the HTP FP assay using a peptide substrate of the application. […] 100 nM Ub4-peptide coupled to fluorescein-5-maleimide was incubated with 10 nM 26S proteasome in 50 mM Tris pH 8.0; 10 mM MgCl2; 1 mM DTT; 1 mM ATP at 28° C. and the liberation of peptide was measured by fluorescence polarization (excitation at 485 nm; emission at 510 nm) in the presence of various concentrations of 20S proteasome inhibitor (as indicated).

[5] = FIG. 2, 60 nM 26S proteasome from source A
[6] = FIG. 2, 60 nM 26S proteasome from source B

Rpn11, sequence (P43588 whole entry): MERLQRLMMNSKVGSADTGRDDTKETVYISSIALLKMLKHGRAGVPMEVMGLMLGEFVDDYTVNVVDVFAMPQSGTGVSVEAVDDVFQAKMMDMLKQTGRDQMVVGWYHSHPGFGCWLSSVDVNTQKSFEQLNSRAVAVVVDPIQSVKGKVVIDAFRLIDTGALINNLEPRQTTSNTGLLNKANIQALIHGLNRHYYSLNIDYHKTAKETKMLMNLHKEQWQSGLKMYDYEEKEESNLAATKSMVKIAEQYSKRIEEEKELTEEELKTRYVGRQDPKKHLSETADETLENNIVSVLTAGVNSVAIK

- effect on the chymotryptic-like activity of the 20S proteasome [1]: affect
Compound: COc1cccc(OC)c1C(=O)N1CCC(c2nc(-c3ccc(C)cc3)no2)CC1 [Compound 2]

Compound: O=C(c1ccc(CSc2ccc(-c3ccc(-c4ccccc4)cc3)nn2)o1)N1CCCC1 [Compound 4]
- processing of the substrate Ub4-pep-C14(29)-Oregon Green by the 19S proteasome (19S proteasome): prevents

- inhibition of proteolysis of the substrate Ub4-peptide(29) and Ub4-peptide-C14(29) by the 26S proteasome (Rpn11 (26S proteasome) [2]): inhibited
- inhibition of proteolysis of the substrate Ub4-peptide-C14(14) (Rpn11 (26S proteasome) [2]; [5]): inhibited
- inhibition of proteolysis of the substrate Ub4-peptide-C14(14) (Rpn11 (26S proteasome) [2]; [6]): not
Compound: Nc1ncnc2c1ncn2[C@@H]1O[C@H](COP(=O)(O)OP(=O)(O)OP(O)(O)=S)[C@@H](O)[C@H]1O [ATPγS]

Compound: ubiquitin vinylsulphone
- sensitivity of the deubiquitinating activity associated with Rpn11 (Rpn11): insensitivity

- effect on the chymotryptic-like activity of the 20S proteasome [1]: affect
Compound: CC(C)c1cc(OC(=O)c2cc(C(F)(F)F)cc(C(F)(F)F)c2)n(-c2ccc([N+](=O)[O-])cc2)n1 [Compound 3]

- effect on the chymotryptic-like activity of the 20S proteasome [1]: affect
Compound: COc1cccc(OC)c1C(=O)N1CCC(c2nc(-c3ccc(Br)cc3)no2)CC1 [Compound 1]

Compound: Ub4-peptide-C14(14): peptide of SEQ ID NO:15 with S14 changed to C14 and an N-terminal Ub4 moiety; Rpn11 substrate (Ub4-MQIFVKTLRANSSC)
- effect of changing S14 to C14 on substrate's ability to be recognized and cleaved by Rpn11 (Rpn11 (26S proteasome) [2]; FIG. 2, SEQ ID NO:15, N-terminal Ub4): does not alter

Compound: O=C(Nc1ccc(/C=C/c2ccc(NC(=O)c3cc(S(=O)(=O)O)c4cccnc4c3O)cc2S(=O)(=O)O)c(S(=O)(=O)O)c1)c1cc(S(=O)(=O)O)c2cccnc2c1O [Ubistatin A]
- intrinsic fluorescence detected from Compound 92 on binding to a protein substrate [3]: increases
- intrinsic fluorescence of ubistatin A (C92) (Ub4-pep-C14(29)): increases several fold

- inhibition of proteolysis of the substrate Ub4-peptide(29) and Ub4-peptide-C14(29) by the 26S proteasome (Rpn11 (26S proteasome) [2]): not
Compound: ubiquitin aldehyde
- sensitivity of the deubiquitinating activity associated with Rpn11 (Rpn11): insensitivity

- inhibition of proteolysis of the substrate Ub4-peptide(29) and Ub4-peptide-C14(29) by the 26S proteasome (Rpn11 (26S proteasome) [2]): inhibited
- inhibition of proteolysis of the substrate Ub4-peptide-C14(14) (Rpn11 (26S proteasome) [2]; [5]): inhibited
- inhibition of proteolysis of the substrate Ub4-peptide-C14(14) (Rpn11 (26S proteasome) [2]; [6]): not
- effect on kinetics of Ub4-peptide(29)-fluorescein proteolysis by the 26S proteasome (Rpn11 (26S proteasome) [4]): affects
Compound: c1cnc2c(c1)ccc1cccnc12 [o-phenanthroline, 1,10-phenanthroline]
